Patent US6447997B1, “Gene coding for GADD153 as a clinical diagnostic and prognostic in cancer therapy” (Research Development Foundation, priority 1997, dated 2002)

Experiments:
UMSCC10b-Pt/S15 = experiment: Sensitivity to cDDP in vitro, clonogenic assay; assay type: cell-based, human; conditions: subline UMSCC10b-Pt/S15
Protocol: (§1) UMSCC10b cells were selected for cDDP resistance by chronic exposure to cDDP which was supplied by (Bristol-Meyers-Squibb, Princeton, N.Y.). The first three selections were performed at a concentration of 0.5 μM which allowed approximately 10^7 cells to grow to confluence in a 150 cm^2 flask within one week. For every following set of 3 selections, the cDDP concentration was increased by approximately 20% (15,16). The sensitivity of the UMSCC10b cell line and its cDDP-resistant variants to cDDP was determined by clonogenic assay using a 1 h cDDP exposure. A single-cell suspension was plated into 60 mm tissue culture dishes (Corning) at 300 cells per dish in fresh medium. After incubation for 24 h at 37° C., cells had attached to the plates and cDDP was added to the cells and incubated for 1 h following which the cells were washed twice with phosphate-buffered saline and 5 ml of fresh medium was added. Cultures were incubated for an additional 13-15 days following which there were fixed with methanol, stained with Giemsa, and clusters of >50 cells were scored as colonies. cDDP-selected cells were cultured in drug-free media for 2 weeks before cDDP sensitivity was determined by clonogenic assay.

UMSCC10b-Pt/S6 = experiment: Sensitivity to cDDP in vitro, clonogenic assay; assay type: cell-based, human; conditions: subline UMSCC10b-Pt/S6
Protocol: as §1

GADD153 mRNA = GADD153 mRNA level in UMSCC10b xenografts in nude mice after cDDP; assay type: in vivo
Protocol: The various aspects of the invention are also useful for xenografted tumors. Nude mice were inoculated s.c. with human UMSCC10b tumor cells, and then treated with cDDP (0, 10, 15, 30 or 50 mg/kg cDDP i.p.) when the tumors reached 1 ml in volume. FIG. 5a depicts the results obtained when tumors were harvested at 24 h after cDDP treatment. […] The time course of the change in message level in the xenografts was similar to that observed with in vitro exposure of the cells (FIG. 5b). Thus, GADD153 mRNA levels can be increased in vivo by cDDP doses around the maximum tolerated dose in this system (15-20 mg/kg cDDP).
UMSCC10b cells were injected subcutaneously over the shoulder of athymic (BALB/c nu/nu) female mice, 3-4 weeks of age (Harlan Sprague Dawley, Indianapolis, Ind.). The xenografts were allowed to grow until they reached approximately […] in volume, at which time cDDP treatment was initiated. […]
GADD153 message levels were quantified using a modification of the technique reported by Horikoshi et al (20). […] PCR products were separated on a 8 M (6%) acrylamide gel and analyzed using a Molecular Imaging System (BioRad, Hercules, Calif.). For each RNA sample to be analyzed, a series of PCR reactions was performed to generate a graph of the amount of PCR product as a function of input CDNA for both GADD153 and β-ACTIN. […]

Compound: [NH2][Pt]([NH2])([Cl])[Cl] [cDDP, cisplatin]
- cDDP resistance relative to parental cells (UMSCC10b-Pt/S15): 6 fold
- cDDP resistance relative to parental cells (UMSCC10b-Pt/S6): 3 fold
- time of return of GADD153 mRNA toward basal levels in vivo (GADD153 mRNA; UMSCC10b xenografts after treatment): ≤ 96 h
- GADD153 mRNA levels in xenografts (GADD153 mRNA; tumors harvested 24 h after cDDP i.p., 0-50 mg/kg): increased as a function of cDDP dose
